Holding throughout (assay type): functional
In assay [1] the test system is NCI-H2122. The experiment in a line: Antitumor activity against human NCI-H2122 cells harboring KRAS […] mutant xenografted in BALB/c nude mouse assessed as tumor volume at 15 mg/kg, po administered twice daily and measured on day 27 (reference value: 1559.54 +/- 225.48 mm3). The note with it: time 27 day. A general note: Xenograft models place foreign cells or tissue in a host animal.

Assay [2] concerns NCI-H2122. The experiment in a line: Antitumor activity against human NCI-H2122 cells harboring KRAS […] mutant xenografted in BALB/c nude mouse assessed as tumor growth inhibition at 15 mg/kg, po administered once daily and measured on day 27 in presence of adagrasib. The note with it: NCI-H2122, 648 h, time 27 day, read-out: TGI.
Assay [3] has as its system NCI-H2122. Nature of the assay: Antitumor activity against human NCI-H2122 cells harboring KRAS […] mutant xenografted in BALB/c nude mouse assessed as tumor volume at 15 mg/kg, po administered once daily and measured on day 27 in presence of adagrasib (reference value: 1559.54 +/- 225.48 mm3). The note with it: time 27 day.
Assay [4] deals with NCI-H2122. Nature of the assay: Antitumor activity against human NCI-H2122 cells harboring KRAS […] mutant xenografted in BALB/c nude mouse assessed as T/C ratio at 15 mg/kg, po administered twice daily and measured on day 27 relative to control. The note with it: time 27 day.
Assay [5] relates to NCI-H2122. Nature of the assay: Antitumor activity against human NCI-H2122 cells harboring KRAS […] mutant xenografted in BALB/c nude mouse assessed as tumor growth inhibition at 15 mg/kg, po administered twice daily and measured on day 27. The note with it: NCI-H2122, 648 h, time 27 day, read-out: TGI.
The subject of assay [6] is NCI-H2122. The experiment in a line: Antitumor activity against human NCI-H2122 cells harboring KRAS […] mutant xenografted in BALB/c nude mouse assessed as T/C ratio at 15 mg/kg, po administered once daily and measured on day 27 in presence of adagrasib relative to control. The note with it: time 27 day.
Assay [7] deals with NCI-H2122. Nature of the assay: Antitumor activity against human NCI-H2122 cells harboring KRAS […] mutant xenografted in BALB/c nude mouse assessed as T/C ratio at 60 mg/kg, po administered once daily and measured on day 27 in presence of adagrasib relative to control. The note with it: time 27 day.
In assay [8] the test system is NCI-H2122. Nature of the assay: Antitumor activity against human NCI-H2122 cells harboring KRAS […] mutant xenografted in BALB/c nude mouse assessed as tumor growth inhibition at 100 mg/kg, po administered once daily and measured on day 27. The note with it: NCI-H2122, 648 h, time 27 day, read-out: TGI.
The test system of assay [9] is NCI-H2122. Nature of the assay: Antitumor activity against human NCI-H2122 cells harboring KRAS […] mutant xenografted in BALB/c nude mouse assessed as tumor volume at 100 mg/kg, po administered once daily and measured on day 27 (reference value: 1559.54 +/- 225.48 mm3). The note with it: time 27 day.
Assay [10] relates to NCI-H2122. Nature of the assay: Antitumor activity against human NCI-H2122 cells harboring KRAS […] mutant xenografted in BALB/c nude mouse assessed as tumor growth inhibition at 60 mg/kg, po administered once daily and measured on day 27 in presence of sotorasib. The note with it: NCI-H2122, 648 h, time 27 day, read-out: TGI.
Assay [11] deals with NCI-H2122. The experiment in a line: Antitumor activity against human NCI-H2122 cells harboring KRAS […] mutant xenografted in BALB/c nude mouse assessed as tumor volume at 60 mg/kg, po administered once daily and measured on day 27 in presence of sotorasib (reference value: 1559.54 +/- 225.48 mm3). The note with it: time 27 day.
Assay [12] concerns NCI-H2122. The experiment in a line: Antitumor activity against human NCI-H2122 cells harboring KRAS […] mutant xenografted in BALB/c nude mouse assessed as tumor growth inhibition at 60 mg/kg, po administered once daily and measured on day 27 in presence of adagrasib. The note with it: NCI-H2122, 648 h, time 27 day, read-out: TGI.
For assay [13], the system named is NCI-H2122. Nature of the assay: Antitumor activity against human NCI-H2122 cells harboring KRAS […] mutant xenografted in BALB/c nude mouse assessed as tumor volume at 60 mg/kg, po administered once daily and measured on day 27 in presence of adagrasib (reference value: 1559.54 +/- 225.48 mm3). The note with it: time 27 day.
The subject of assay [14] is NCI-H2122. Nature of the assay: Antitumor activity against human NCI-H2122 cells harboring KRAS […] mutant xenografted in BALB/c nude mouse assessed as tumor growth inhibition at 60 mg/kg, po administered twice daily and measured on day 27. The note with it: NCI-H2122, 648 h, time 27 day, read-out: TGI.
Assay [15] has as its system NCI-H2122. Nature of the assay: Antitumor activity against human NCI-H2122 cells harboring KRAS […] mutant xenografted in BALB/c nude mouse assessed as T/C ratio at 60 mg/kg, po administered once daily and measured on day 27 in presence of sotorasib relative to control. The note with it: time 27 day.
For assay [16], the system named is NCI-H2122. Nature of the assay: Antitumor activity against human NCI-H2122 cells harboring KRAS […] mutant xenografted in BALB/c nude mouse assessed as T/C ratio at 60 mg/kg, po administered twice daily and measured on day 27 relative to control. The note with it: time 27 day.
The test system of assay [17] is NCI-H2122. The experiment in a line: Antitumor activity against human NCI-H2122 cells harboring KRAS […] mutant xenografted in BALB/c nude mouse assessed as tumor volume at 60 mg/kg, po administered twice daily and measured on day 27 (reference value: 1559.54 +/- 225.48 mm3). The note with it: time 27 day.
In assay [18] the test system is NCI-H2122. The experiment in a line: Antitumor activity against human NCI-H2122 cells harboring KRAS […] mutant xenografted in BALB/c nude mouse assessed as T/C ratio at 100 mg/kg, po administered once daily and measured on day 27 relative to control. The note with it: time 27 day.

Take `Cn1cncc1[C@@]1(N)c2ccc(C#N)c(c2)COc2cccc(c2)-c2cc(C#N)nc3ccc1cc23`: the values for the Activity with NCI-H2122 [1] and in the assay on NCI-H2122 [3] were 1062.47 mm3 and 187.07 mm3, respectively. For the same compound, the inhibition in vivo at 15 mg/kg amounted to 88% with NCI-H2122 [2] and 31.9% in the assay on NCI-H2122 [5]. In addition, the T/C with NCI-H2122 [4] was 68.13%; in the assay on NCI-H2122 [6] it was 12%.

On to `C=CC(=O)N1CCN(c2nc(=O)n(-c3c(C)ccnc3C(C)C)c3nc(-c4c(O)cccc4F)c(F)cc23)[C@@H](C)C1` [SOTORASIB], for which, in the assay with NCI-H2122 [7], the T/C stood at 41.25%. Moreover, the inhibition in vivo at 100 mg/kg with NCI-H2122 [8] came out at 58.8%. For the same compound, in the assay on NCI-H2122 [9], the Activity is listed as 643.34 mm3.

On to `Cn1cncc1[C@@](N)(c1ccc(Cl)cc1)c1ccc2c(c1)c(-c1cccc(Cl)c1)cc(=O)n2C` [TIPIFARNIB], for which the T/C with NCI-H2122 [7] is 11.38%; in the assay on NCI-H2122 [15], 14.99%; in the assay on NCI-H2122 [16] it was 64.15%. Moreover, the values for the inhibition in vivo at 60 mg/kg in the assay on NCI-H2122 [10], in the assay with NCI-H2122 [12] and in the assay with NCI-H2122 [14] were 85%, 88.6% and 35.9%, respectively. Further, the Activity in the assay with NCI-H2122 [11] is on record as 233.84 mm3; in the assay with NCI-H2122 [13], 177.5 mm3; with NCI-H2122 [17] it was 1000.38 mm3.

Turning to `C=C(F)C(=O)N1CCN(c2nc(OC[C@@H]3CCCN3C)nc3c2CCN(c2cccc4cccc(Cl)c24)C3)C[C@@H]1CC#N` [ADAGRASIB], the inhibition in vivo at 100 mg/kg with NCI-H2122 [8] amounted to 61.5%. In addition, the T/C in the assay with NCI-H2122 [18] came out at 38.49%. For the same compound, the Activity in the assay with NCI-H2122 [9] turned out to be 600.26 mm3.

One may read the T/C as the ratio of treated to control.

(Values after ChEMBL document CHEMBL6134875, “Farnesyl Transferase Inhibitors as a Novel Strategy for Targeting KRAS-Dependent Cancers” (2025).)
